Experimental data taken from ChEMBL document CHEMBL1201862, “PubChem BioAssay data set” (2004).
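The compound was tested at five concentrations on cells cultured in 96-well plates, with a 48-hour exposure period. The concentration for 50% growth inhibition is given as GI50.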 The source made the active and inactive calls. No stated cut-off is given here; in the data, active = GI50 up to about 1.1 µM and inactive = higher.

Tests used:
Test in all cases: growth of human tumour cells (NCI), 48 h
[1] = tested on: ACHN
[2] = tested on: BT-549
[3] = tested on: HT-29
[4] = tested on: KM12
[5] = tested on: MDA-MB-231
[6] = tested on: MDA-N
[7] = tested on: NCI-H23
[8] = tested on: NCI-H522
[9] = tested on: OVCAR-3
[10] = tested on: OVCAR-5
[11] = tested on: OVCAR-8
[12] = tested on: RXF 393
[13] = tested on: SF-295
[14] = tested on: SF-539
[15] = tested on: SK-MEL-28
[16] = tested on: SK-OV-3
[17] = tested on: SN12C
[18] = tested on: T47D
[19] = tested on: U-251
[20] = tested on: UACC-62

Row | SMILES | GI50 [1] | GI50 [2] | GI50 [3] | GI50 [4] | GI50 [5] | GI50 [6] | GI50 [7] | GI50 [8] | GI50 [9] | GI50 [10] | GI50 [11] | GI50 [12] | GI50 [13] | GI50 [14] | GI50 [15] | GI50 [16] | GI50 [17] | GI50 [18] | GI50 [19] | GI50 [20]
1 | CCCCCCCCCCCCCCCCCCNc1ccn(C2OC(COP(=O)(O)OCC(COP(=O)(O)OCC3OC(n4cc(C)c(=O)[nH]c4=O)CC3N=[N+]=[N-])OCCCCCCCCCCCCCCCCCC)C(O)C2O)c(=O)n1 (stereo not given) | > 100 µM (inactive) | 90.4 µM (inactive) | 28.5 µM (inactive) | 38.5 µM (inactive) | 44.3 µM (inactive) | > 100 µM (inactive) | 77.4 µM (inactive) | 12.6 µM (inactive) | > 100 µM (inactive) | 76.9 µM (inactive) | 60.5 µM (inactive) | 51.6 µM (inactive) | > 100 µM (inactive) | 27 µM (inactive) | > 100 µM (inactive) | > 100 µM (inactive) | > 100 µM (inactive) | 46.7 µM (inactive) | 12.8 µM (inactive) | 49.5 µM (inactive)
2 | O=C1N[C@H]2C(=O)c3c(Br)sc(Br)c3[C@H]2O1 | 6.78 µM (inactive) | 14.5 µM (inactive) | 2.47 µM (inactive) | 19 µM (inactive) | 8.83 µM (inactive) | 7.01 µM (inactive) | 6.44 µM (inactive) | 1.55 µM (inactive) | 3.11 µM (inactive) | 17.7 µM (inactive) | 3.82 µM (inactive) | 3.18 µM (inactive) | 18.5 µM (inactive) | 17.4 µM (inactive) | 3.41 µM (inactive) | 18.4 µM (inactive) | 4.76 µM (inactive) | 14.3 µM (inactive) | 3.48 µM (inactive) | 13.6 µM (inactive)
3 | CC1=NN(c2ccc(S(=O)(=O)O)cc2)C2(C1)SCC(=O)N2c1nc2ccccc2s1 (stereo not given) | > 100 µM (inactive) | > 100 µM (inactive) | > 100 µM (inactive) | > 100 µM (inactive) | > 100 µM (inactive) | > 100 µM (inactive) | > 100 µM (inactive) | > 100 µM (inactive) | > 100 µM (inactive) | > 100 µM (inactive) | > 100 µM (inactive) | > 100 µM (inactive) | > 100 µM (inactive) | > 100 µM (inactive) | > 100 µM (inactive) | > 100 µM (inactive) | > 100 µM (inactive) | > 100 µM (inactive) | > 100 µM (inactive) | > 100 µM (inactive)
4 | COCn1c(=O)n(C)c(=O)c2c1nc1c(c(=O)n(C)c(=O)n1COC)[n+]2[O-] | 5.73 µM (inactive) | 10.3 µM (inactive) | 18.8 µM (inactive) | 13.3 µM (inactive) | 15.3 µM (inactive) | 4.32 µM (inactive) | 3.29 µM (inactive) | 8.97 µM (inactive) | 10.6 µM (inactive) | 25.1 µM (inactive) | 5.7 µM (inactive) | 0.789 µM (active) | 7.55 µM (inactive) | 14.6 µM (inactive) | 35.9 µM (inactive) | 7.03 µM (inactive) | 7.08 µM (inactive) | 3.13 µM (inactive) | 5.85 µM (inactive) | 7.01 µM (inactive)
5 | CC(C)C(C/C=C1/CC(CO)(COC(=O)c2ccccc2)OC1=O)C(C)C (stereo not given) | 13.9 µM (inactive) | 18.3 µM (inactive) | 18.7 µM (inactive) | 15.9 µM (inactive) | 15.7 µM (inactive) | 15.7 µM (inactive) | 18.1 µM (inactive) | 19.9 µM (inactive) | 17.5 µM (inactive) | 16.9 µM (inactive) | 22.4 µM (inactive) | 16.7 µM (inactive) | 12.2 µM (inactive) | 4.69 µM (inactive) | 14.1 µM (inactive) | 45.4 µM (inactive) | 15.5 µM (inactive) | 15.6 µM (inactive) | 16.1 µM (inactive) | 23.9 µM (inactive)
